# Measurements published in patent US20220047594A1, “METHOD FOR TREATING INTERSTITIAL LUNG DISEASE” (ALTAVANT SCIENCES GmbH, priority 2018, published 2022).
# What was measured:
# TPH1 = molecular target: T1, TPH1 (Mus musculus, UniProt P17532); conditions: amorphous form, U.S. Pat. No. 9,199,994 Example 63i and Table 27; cited from earlier work
# T1 construct: host or cells: mice (in vivo)
# T1 sequence (P17532 1-447): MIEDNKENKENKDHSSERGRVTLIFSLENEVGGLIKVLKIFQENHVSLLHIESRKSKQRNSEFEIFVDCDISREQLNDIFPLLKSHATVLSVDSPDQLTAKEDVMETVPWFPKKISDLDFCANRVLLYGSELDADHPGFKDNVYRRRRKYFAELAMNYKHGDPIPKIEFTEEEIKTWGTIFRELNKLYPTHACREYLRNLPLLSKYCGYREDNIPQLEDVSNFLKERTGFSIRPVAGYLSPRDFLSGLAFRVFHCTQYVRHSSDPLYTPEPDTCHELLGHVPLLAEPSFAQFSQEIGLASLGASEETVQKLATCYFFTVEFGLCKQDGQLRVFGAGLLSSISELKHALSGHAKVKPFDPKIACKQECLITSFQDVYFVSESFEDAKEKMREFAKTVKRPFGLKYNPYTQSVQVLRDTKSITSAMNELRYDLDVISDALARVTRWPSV
# [1] = stability and shelf life of the crystalline polymorphs of Compound A; assay type: physicochemical; conditions: compared to the crystalline Form 1 polymorph; particularly at temperatures of less than 95° C.
# Text: The compound may be used to prevent or treat IPF in either an amorphous or crystalline form. Two different polymorph crystalline forms are identified by x-ray powder diffraction patterns set forth in FIG. 1 (Form 3) and FIG. 2 (Form 1) as well as Tables 1 and 2 (Form 3) and Tables 3 and 4 (Form 1).
# [2] = system: bleomycin-induced mouse model; conditions: inflammatory phase and fibrogenic phase; cited from earlier work
# [3] = system: bleomycin-induced mouse model; conditions: cited from earlier work
smiles,measurement,setting,value
"CCOC(=O)[C@@H]1CC2(CCN(c3cc(O[C@H](c4ccc(Cl)cc4-c4ccccc4)C(F)(F)F)nc(N)n3)CC2)CN1 [Compound A, (S)-ethyl 8-(2-amino-6-((R)-1-(5-chloro-[1,1′-biphenyl]-2-yl)-2,2,2-trifluoroethoxy)pyrimidin-4-yl)-2,8-diazaspiro[4.5]decane-3-carboxylate]",efficacy in inhibiting TPH1 in mice,TPH1,demonstrated
"CCOC(=O)[C@@H]1CC2(CCN(c3cc(O[C@H](c4ccc(Cl)cc4-c4ccccc4)C(F)(F)F)nc(N)n3)CC2)CN1 [crystalline Form 3, (S)-ethyl 8-(2-amino-6-((R)-1-(5-chloro-[1,1′-biphenyl]-2-yl)-2,2,2-trifluoroethoxy)pyrimidin-4-yl)-2,8-diazaspiro[4.5]decane-3-carboxylate]",stability and shelf life,[1],substantially greater stability and shelf life
CC1CCN(CC[C@H]2CCCN2S(=O)(=O)c2cccc(O)c2)CC1 [SB-269970],efficacy in attenuating pulmonary fibrosis,[2],attenuating in both the inflammatory phase and the fibrogenic phase
CCN(CC)C(=O)N[C@H]1C[C@@H]2c3cccc4[nH]cc(c34)C[C@H]2N(C)C1 [terguride],efficacy in attenuating pulmonary fibrosis,[2],attenuating in both the inflammatory phase and the fibrogenic phase
same,"lung function, histology and collagen content","[3]; bleomycin-induced mouse model, treated mice",improved lung function and histology and collagen content
same,tolerability,"[3]; mouse, in vivo",well-tolerated
